“And” between values parts separate entries of the source, which are not always exact repeats. Equal values may be shown once. “Also recorded” adds a separate entry of the source.
Legend:
TIL [1] = assay: Peptide recognition assay in TIL (IFN-γ ELISA / IL-17 in supernatant, 7 days); type: cell-based, human
Description: Peptides from tumor-associated antigens (TAAs), listed in Table 5 were placed at 1 ug/well in duplicates using anti-CD3 at 30 ng/mL as well as PHA at 5 μg/mL as positive controls.
The differences in TIL versus PBMCs can also be defined by peptide reactivity. 10e^4 TIL or 10e^4 PBMC/well were co-cultured with the peptides listed in Table 11 below for 7 days and the supernatants were tested for IFN-γ production.

[2] = tested on: human IgG in serum from patients with pancreatic cancer; assay: ELISA of serum IgG binding to MUC4 epitope PVTSLSSVSTGDTTP (OD 405 nm); details: sera from patient S1 and S15, dilutions 1:2 and 1:10
Excerpt: The MUC4 peptide is targeted by human IgG in serum from patients with cancer. […] The epitope PVTSLSSVSTGDTTP was linked to an ELISA plate via a streptavidin-biotin scaffold and tested for IgG recognition in serum from different patients with pancreatic cancer. The optical density (OD) read at 405 nm wavelength was used to detect IgG binding in sera from patients showing that some individuals have a higher IgG concentration to this epitope as compared to other patients, some patients have no IgG reactivity at all showing that there is individual IgG reactivity to this distinct MUC4 epitopes. The anti-human IgG directed antibody A2064 clone GG-5 from Sigma-Aldrich coupled to Alkaline-Phosphatase was used to detect epitope reactivity. The assay layout and reactivity reading are shown in Tables 12 and 13 (layouts and ODs, respectively) below.
Sera from different patients with PDAC (labeled as S1-S15) were incubated with the target epitope at different dilutions in phosphate-buffered saline (PBS) (1:2 and 1:10) and reactivity was tested based on the OD reading.

NRLP3 pathway = assay: Testing of the NRLP3 pathway: KRAS peptide recognition by TIL expanded with or without MCC950; type: cell-based, human; details: TIL expanded with cardiolipin in presence of MCC950 (10 uM/mL)
Description: The number of peptide targets recognized as well as the amount of IFN-γ in pg/10e^4 TIL/target/7 days was analyzed and compared in the cardiolipin-positive versus negative group testing with Human IFN-γ ELISA basic kit (HRP).
Since cardiolipin has been reported to activate the NRLP3 inflammasome, aliquots of these same TIL preparation were expanded and the absence or presence of the NRLP3 inhibitor (MCC950) was investigated.

PBMCs = assay: Percentage of γδ T-cells in healthy individuals PBMCs expanded in presence or absence of cardiolipin; type: cell-based, human
Description: PBMCs of healthy individuals expanded in the presence of cardiolipin without interleukins increased the frequency of γδ T-cells (Table 4).
(§1) TIL and PBMCs were analyzed using several DuraClone (Beckman Coulter) Panels, always with addition of the LIVE/DEAD™ Fixable Yellow Dead Cell Stain Kit: DuraClone IM T-cell Subsets tube adding LAG-3 BV650 and CD95 BV785 and Duraclone IM TCRs tube. Besides, another panel with commercially available antibodies were used, which included CD4 Pacific Blue, CD8 KromeOrange, CXCR3 BV650, CD95 BV785, CD103 FITC, CCR7 PE, CCR4 PE/Dazzle, TCR pan-γ/δ PC5.5, CCR6 PC-7, CCR9 Alexa Fluor 647, CD45RA AF700, CD3 APC-A750 and LIVE/DEAD™ Fixable Yellow Dead Cell Stain Kit. After 15 minutes incubation, T-cells and PBMCs were washed in PBS-2% FBS and acquired using a CytoFlex LX flow cytometer from Beckman Coulter. Analysis was performed using FlowJo software.

TIL [3] = assay: IFN-γ induction assay / cytokine production of TIL after anti-CD3 crosslinking, 24 h, 10e5 cells; type: cell-based, human; details: TIL with or without cardiolipin
Description: In table 3, TIL were seated in at 10e^5 cells/well in triplicates in medium containing IL-2/IL-7/IL-15+cardiolipin (medium) or in IL-2/IL-7/IL-15+cardiolipin plus anti-CD3-IgG1 at 30 ng/mL to crosslink the T-cell receptor.
Supernatants were harvested after 24 hours in order to test for maximal T-cell activation defined in 24 hrs./10e^5 cells for comparison. The delta between maximal stimulation (b) and constitutive cytokine production (A) is summarized in row “delta (B-A)”.
This assay is used to measure the IFN-γ production after anti-CD3 induced activation during 24 h in 10^5 cells.

[4] = tested on: PBMCs from healthy individuals; assay: Cardiolipin titration: IFN-γ and IL-17A production in PBMCs and whole blood; type: cell-based, human; details: 250 nM cardiolipin, PBMCs from healthy individuals stimulated with OKT3 (30 ng/mL)
TIL [5] = assay: Flow cytometric analysis of TIL and PBMC phenotype; type: cell-based, human
Description: Different phenotypes in TIL were observed, when using different tumor regions in the three-expansion step herein proposed.
γδ T-cells were negatively sorted using a commercial kit from Stem Cell. Purity of negatively sorted cells was tested by flow cytometry using the DURAclone panel IM TCRs.
as §1

TIL [6] = assay: Treg detection assay; type: cell-based, human; details: TIL with or without cardiolipin
Description: Briefly, cells were stained extracellularly with CD3 PE (clone UCHT-1, BD 555749), CD4 V450 (clone RPA-T4, BD 561838), CD8 APC-Cy7 (clone SK1, BD 557834), CD25 PE-Cy7 (clone 2A3, BD 335824), CD127 APC (clone R34.34, Beckman Coulter B42026) for 15 minutes in ice and then washed and permeabilized using Biolegend's True-Nuclear Transcription Factor Buffer Set according to manufacturer's instructions.
Cells were then stained intracellularly with FOXP3 Alexa488 antibody (clone 259D/C7, BD 560047) or an IgG1 isotype control Alexa 488 (BD 557702), and CD3 PE (clone UCHT-1, BD 555749). Tregs cells were identified by flow cytometry as CD3^+ CD4^+ CD25^high CD127^−FoxP3^+).

TIL [7] = assay: CD107a assay; type: cell-based, human; details: TIL with or without cardiolipin
Description: Briefly, positive control cells were stimulated with 1 μg/mL of PMA; non-stimulated cells served as the control and data were performed in triplicates. Both stimulated and non-stimulated cells were incubated with a protein transport inhibitor containing monensin (BD, 51-2092kz) and CD107a PE antibody (clone H4A3, BD 555801) for 2 hours. Then an extracellular staining was performed using CD3 PE-Cy7 (clone UCHT1, BD 563423), CD4 V450 (clone RPA-T4, BD 561838) and CD8 APC-Cy7 (clone SK1, BD 557834). Control cells are PBMCs that had been cultured for 48-72 hours in the presence of 300 IU/mL IL-2 and 50 IU/mL IL-15. The assay is considered as positive if the positive control cells (PMA stimulated) have at least 2× the SD of the triplicates of the negative control.

TIL [8] = assay: RNA sequencing, differential gene expression in TIL grown with and without cardiolipin; type: cell-based, human; details: TIL expanded with vs without cardiolipin, DESeq2 FDR <0.10
Description: RNA from TIL was isolated using the commercially available RNeasy Mini Kit (Qiagen) and sequencing was done using the Illumina NovaSeq 6000 system with 100 bp paired end read lengths. Adapters were removed.
Transcriptome sequencing data alignment was performed using STAR two-pass method to human genome build hg19. Duplicates were marked using the Picard's MarkDuplicates tool and reads were split using the GATK SplitNCigarReads tool and variants were called using Varscan2. STAR-Fusion was used to identify candidate fusion transcripts and its output was annotated using AGFusion.
RNA sequencing was performed in seven of TIL expansions (i.e. from seven individual patients) with or without cardiolipin and tested for differential gene expression (FIG. 15). Genes with extremely low counts across samples were removed because they provide little evidence for differential expression and may interfere with some of the statistical approximations used.

PVTSLSSVSTGDTTP [MUC4-P3 [Mut][WT]]
Pancreatic TIL D1599 IFN-y (TIL [1]; Pancreatic TIL D1599): 0 pg/mL | Pancreatic TILD1599 IL 17 (TIL [1]; Pancreatic TIL D1599): 2 pg/mL | IgG binding reactivity to the nominal MUC4 epitope [2]: strong IgG binding reactivity

CC(C)(O)c1coc(S(=O)(=O)NC(=O)Nc2c3c(cc4c2CCC4)CCC3)c1 [MCC950]
tumor associated antigen (KRAS epitope) recognition in TIL (NRLP3 pathway): statistically reduces the function of cardiolipin; also recorded: reduces the tumor associated antigen recognition in TIL

cardiolipin
frequency of γδ T-cells (PBMCs; PBMCs of healthy individuals expanded with cardiolipin without interleukins): increased | Percentage of γδ T-cells, w/CL (PBMCs; healthy individuals PBMCs, presence of cardiolipin, without interleukins, single donors, listed as CL): 10.5% and 9.32% and 26% and 10.9% and 22.9% | Percentage of γδ T-cells, w/CL, Average (PBMCs; healthy individuals PBMCs, presence of cardiolipin, average of donors): 15.92% | recognition of commonly shared tumor-associated antigens (KRAS, mesothelin) by TIL, IFN-γ production (TIL [1]; TIL expanded in cardiolipin): recognized a high number of KRAS as well as mesothelin targets | IFN-γ production in TIL (TIL [3]): no differences | IL-17 production in TIL (TIL [3]): no differences | production of IFN-γ [4]: favorable production of IFN-γ | T-cell maturation, activation, or exhaustion markers (TIL [5]; CD4+, CD8+, double-positive, double-negative or γδ+ TIL, with vs without cardiolipin): not observed | frequency of γδ TIL (TIL [5]; TIL expanded with IL-7, IL-15, IL-21 with vs without cardiolipin): increased | regulatory T-cells (Treg) in TIL (TIL [6]): no differences | CD107 induction in TIL (TIL [7]): no differences | CXCL9 gene expression (TIL [8]): over-expressed | CXCL10 gene expression (TIL [8]): over-expressed | KBTBD11 gene expression (TIL [8]): statistically reduced

Source: US20250314636A1, “METHOD OF PREPARING AND EXPANDING A POPULATION OF IMMUNE CELLS FOR CANCER THERAPY, POTENCY ASSAY FOR TUMOR RECOGNITION, BIOLOGICAL VACCINE PREPARATION AND EPITOPETARGET FOR ANTIBODIES” (FUNDAÇÃO D. ANNA DE SOMMER CHAMPALIMAUD E DR. CARLOS MONTEZ …, priority 2022, published 2025)
